# Test system: 782815-120-R-J1-PDC complex spheroid viability
# Test: Anticancer human tumor 782815-120-R-J1-PDC patient-derived colon adenocarcinoma cell line growth inhibition [RAS]
# Conditions: for IC50: curve of first compound; for viability, T/C: stronger effect = lower value
# Outline: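 Agents were tested in combination matrices in half-log decrements from a top concentration at or near clinical Cmax (10 microM if undetermined). Targets were multi-cell spheroids of tumour lines plus HUVEC and MSC stromal cells.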
# [1] = second compound 0.000949 µM, first compound 0.000949 µM
# [2] = second compound 0.000949 µM, first compound 0.003 µM
# [3] = second compound 0.000949 µM, first compound 0.00949 µM
# [4] = second compound 0.000949 µM, first compound 0.03 µM
# [5] = second compound 0.000949 µM, first compound 0.0949 µM
# [6] = second compound 0.000949 µM, first compound 0.3 µM
# [7] = second compound 0.003 µM, first compound 0.000949 µM
# [8] = second compound 0.003 µM, first compound 0.003 µM
# [9] = second compound 0.003 µM, first compound 0.00949 µM
# [10] = second compound 0.003 µM, first compound 0.03 µM
# [11] = second compound 0.003 µM, first compound 0.0949 µM
# [12] = second compound 0.003 µM, first compound 0.3 µM
# [13] = second compound 0.00949 µM, first compound 0.000949 µM
# [14] = second compound 0.00949 µM, first compound 0.003 µM
# [15] = second compound 0.00949 µM, first compound 0.00949 µM
# [16] = second compound 0.00949 µM, first compound 0.03 µM
# [17] = second compound 0.00949 µM, first compound 0.0949 µM
# [18] = second compound 0.00949 µM, first compound 0.3 µM
# [19] = second compound 0.03 µM, first compound 0.000949 µM
# [20] = second compound 0.03 µM, first compound 0.003 µM
# [21] = second compound 0.03 µM, first compound 0.00949 µM
# [22] = second compound 0.03 µM, first compound 0.03 µM
# [23] = second compound 0.03 µM, first compound 0.0949 µM
# [24] = second compound 0.03 µM, first compound 0.3 µM
# [25] = second compound 0.0949 µM, first compound 0.000949 µM
# [26] = second compound 0.0949 µM, first compound 0.003 µM
# [27] = second compound 0.0949 µM, first compound 0.00949 µM
# [28] = second compound 0.0949 µM, first compound 0.03 µM
# [29] = second compound 0.0949 µM, first compound 0.0949 µM
# [30] = second compound 0.0949 µM, first compound 0.3 µM
# [31] = second compound 0.3 µM, first compound 0.000949 µM
# [32] = second compound 0.3 µM, first compound 0.003 µM
# [33] = second compound 0.3 µM, first compound 0.00949 µM
# [34] = second compound 0.3 µM, first compound 0.03 µM
# [35] = second compound 0.3 µM, first compound 0.0949 µM
# [36] = second compound 0.3 µM, first compound 0.3 µM
# 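Also: spheroids exposed to compounds for 7 days before reading.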
# 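For viability, T/C in this document: 100% = DMSO vehicle control viability.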
structure (smiles),measurement,setting,value
C=CC(=O)N1CCN(c2nc(OCC3CCCN3C)nc3c(F)c(-c4nc(N)cc(C)c4C(F)(F)F)c(Cl)cc23)C(C)C1 (stereo unspecified) + CCn1c(-c2cc(N3CCN(C)CC3)cnc2C(C)OC)c2c3cc(ccc31)-c1csc(n1)CC(NC(=O)C1CC1C)C(=O)N1CCCC(N1)C(=O)OCC(C)(C)C2,IC50,second compound 0.000949 µM,> 1000 nM
same,IC50,second compound 0.003 µM,> 1000 nM
same,IC50,second compound 0.00949 µM,< 3.16 nM
same,IC50,second compound 0.03 µM,< 3.16 nM
same,IC50,second compound 0.0949 µM,< 3.16 nM
same,IC50,second compound 0.3 µM,< 3.16 nM
same,"viability, T/C","second compound 0.000949 µM, first compound 0.00316 µM",82.5%
same,"viability, T/C","second compound 0.000949 µM, first compound 0.01 µM",74.3%
same,"viability, T/C","second compound 0.000949 µM, first compound 0.0316 µM",70%
same,"viability, T/C","second compound 0.000949 µM, first compound 0.1 µM",79.5%
same,"viability, T/C","second compound 0.000949 µM, first compound 0.316 µM",77.1%
same,"viability, T/C","second compound 0.000949 µM, first compound 1 µM",90%
same,"viability, T/C","second compound 0.003 µM, first compound 0.00316 µM",57.1%
same,"viability, T/C","second compound 0.003 µM, first compound 0.01 µM",56.9%
same,"viability, T/C","second compound 0.003 µM, first compound 0.0316 µM",57.9%
same,"viability, T/C","second compound 0.003 µM, first compound 0.1 µM",49.6%
same,"viability, T/C","second compound 0.003 µM, first compound 0.316 µM",55%
same,"viability, T/C","second compound 0.003 µM, first compound 1 µM",57.2%
same,"viability, T/C","second compound 0.00949 µM, first compound 0.00316 µM",31.1%
same,"viability, T/C","second compound 0.00949 µM, first compound 0.01 µM",32%
same,"viability, T/C","second compound 0.00949 µM, first compound 0.0316 µM",36.7%
same,"viability, T/C","second compound 0.00949 µM, first compound 0.1 µM",29.8%
same,"viability, T/C","second compound 0.00949 µM, first compound 0.316 µM",31.6%
same,"viability, T/C","second compound 0.00949 µM, first compound 1 µM",31%
same,"viability, T/C","second compound 0.03 µM, first compound 0.00316 µM",19.6%
same,"viability, T/C","second compound 0.03 µM, first compound 0.01 µM",22%
same,"viability, T/C","second compound 0.03 µM, first compound 0.0316 µM",17.9%
same,"viability, T/C","second compound 0.03 µM, first compound 0.1 µM",20.6%
same,"viability, T/C","second compound 0.03 µM, first compound 0.316 µM",18.1%
same,"viability, T/C","second compound 0.03 µM, first compound 1 µM",19.8%
same,"viability, T/C","second compound 0.0949 µM, first compound 0.00316 µM",16%
same,"viability, T/C","second compound 0.0949 µM, first compound 0.01 µM",14.3%
same,"viability, T/C","second compound 0.0949 µM, first compound 0.0316 µM",16.1%
same,"viability, T/C","second compound 0.0949 µM, first compound 0.1 µM",15.5%
same,"viability, T/C","second compound 0.0949 µM, first compound 0.316 µM",15.2%
same,"viability, T/C","second compound 0.0949 µM, first compound 1 µM",13.5%
same,"viability, T/C","second compound 0.3 µM, first compound 0.00316 µM",16.1%
same,"viability, T/C","second compound 0.3 µM, first compound 0.01 µM",16.3%
same,"viability, T/C","second compound 0.3 µM, first compound 0.0316 µM",15.6%
same,"viability, T/C","second compound 0.3 µM, first compound 0.1 µM",16.5%
same,"viability, T/C","second compound 0.3 µM, first compound 0.316 µM",16.2%
same,"viability, T/C","second compound 0.3 µM, first compound 1 µM",13.6%
CC1(C)CCC(Nc2ncc(C(F)(F)F)c(-c3c[nH]c4c(P(C)(C)=O)c(C#N)ccc34)n2)CN1 (stereo unspecified) + CCn1c(-c2cc(N3CCN(C)CC3)cnc2C(C)OC)c2c3cc(ccc31)-c1csc(n1)CC(NC(=O)C1CC1C)C(=O)N1CCCC(N1)C(=O)OCC(C)(C)C2,IC50,second compound 0.000949 µM,14.6 nM
same,IC50,second compound 0.003 µM,2.4 nM
same,IC50,second compound 0.00949 µM,< 0.949 nM
same,IC50,second compound 0.03 µM,< 0.949 nM
same,IC50,second compound 0.0949 µM,< 0.949 nM
same,IC50,second compound 0.3 µM,< 0.949 nM
same,"viability, T/C",[1],65.1%
same,"viability, T/C",[2],61.3%
same,"viability, T/C",[3],54.6%
same,"viability, T/C",[4],43%
same,"viability, T/C",[5],36.9%
same,"viability, T/C",[6],39.2%
same,"viability, T/C",[7],52.9%
same,"viability, T/C",[8],54%
same,"viability, T/C",[9],44.6%
same,"viability, T/C",[10],31.3%
same,"viability, T/C",[11],34.4%
same,"viability, T/C",[12],34.2%
same,"viability, T/C",[13],30.3%
same,"viability, T/C",[14],30.4%
same,"viability, T/C",[15],25.7%
same,"viability, T/C",[16],22.8%
same,"viability, T/C",[17],19.2%
same,"viability, T/C",[18],23.6%
same,"viability, T/C",[19],18.7%
same,"viability, T/C",[20],18.3%
same,"viability, T/C",[21],15.3%
same,"viability, T/C",[22],14%
same,"viability, T/C",[23],13%
same,"viability, T/C",[24],13.6%
same,"viability, T/C",[25],15.6%
same,"viability, T/C",[26],15.6%
same,"viability, T/C",[27],9.83%
same,"viability, T/C",[28],10.4%
same,"viability, T/C",[29],10.7%
same,"viability, T/C",[30],8.29%
same,"viability, T/C",[31],16.3%
same,"viability, T/C",[32],13.9%
same,"viability, T/C",[33],12.5%
same,"viability, T/C",[34],9.35%
same,"viability, T/C",[35],7.69%
same,"viability, T/C",[36],7.08%
CCc1c2c(nc3ccc(O)cc13)-c1cc3c(c(=O)n1C2)COC(=O)[C@]3(O)CC + CCn1c(-c2cc(N3CCN(C)CC3)cnc2C(C)OC)c2c3cc(ccc31)-c1csc(n1)CC(NC(=O)C1CC1C)C(=O)N1CCCC(N1)C(=O)OCC(C)(C)C2,IC50,second compound 0.000949 µM,2.4 nM
same,IC50,second compound 0.003 µM,1.92 nM
same,IC50,second compound 0.00949 µM,< 0.949 nM
same,IC50,second compound 0.03 µM,< 0.949 nM
same,IC50,second compound 0.0949 µM,< 0.949 nM
same,IC50,second compound 0.3 µM,< 0.949 nM
same,"viability, T/C",[1],70.4%
same,"viability, T/C",[2],45.9%
same,"viability, T/C",[3],19.8%
same,"viability, T/C",[4],10.8%
same,"viability, T/C",[5],3.9%
same,"viability, T/C",[6],1.57%
same,"viability, T/C",[7],66.6%
same,"viability, T/C",[8],38.8%
same,"viability, T/C",[9],23.4%
same,"viability, T/C",[10],12.9%
same,"viability, T/C",[11],4.38%
same,"viability, T/C",[12],1.89%
same,"viability, T/C",[13],32.7%
same,"viability, T/C",[14],28.5%
same,"viability, T/C",[15],15.4%
same,"viability, T/C",[16],12.7%
same,"viability, T/C",[17],7.05%
same,"viability, T/C",[18],1.84%
same,"viability, T/C",[19],19.6%
same,"viability, T/C",[20],16.7%
same,"viability, T/C",[21],11.7%
same,"viability, T/C",[22],10.4%
same,"viability, T/C",[23],6.53%
same,"viability, T/C",[24],1.73%
same,"viability, T/C",[25],15.5%
same,"viability, T/C",[26],16.3%
same,"viability, T/C",[27],11.7%
same,"viability, T/C",[28],10.5%
same,"viability, T/C",[29],7.5%
same,"viability, T/C",[30],0.75%
same,"viability, T/C",[31],14.3%
same,"viability, T/C",[32],13.6%
same,"viability, T/C",[33],10.7%
same,"viability, T/C",[34],13.1%
same,"viability, T/C",[35],7.92%
same,"viability, T/C",[36],1.5%

# — PubChem BioAssay AID2060887 (Molecular Pharmacology Branch, DTP, NCI, 2025)
